According to BigSolDB 2.1:

Q: What does the source list for `COC(=O)[C@H]1[C@H]2C[C@@H]3c4[nH]c5cc(OC)ccc5c4CCN3C[C@H]2C[C@@H](OC(=O)c2cc(OC)c(OC)c(OC)c2)[C@@H]1OC`?
A: solubility (mole fraction) (in PEG-400, 298.15 K): 0.00144; solubility (mole fraction) (in PEG-400, 308.15 K): 0.00206; solubility (mole fraction) (in PEG-400, 318.15 K): 0.00281; solubility (mole fraction) (in PEG-400, 328.15 K): 0.00373; solubility (mole fraction) (in PEG-400, 338.15 K): 0.0047; solubility (mole fraction) (in ethanol, 298.15 K): 9.16e-06; solubility (mole fraction) (in ethanol, 308.15 K): 1.25e-05; solubility (mole fraction) (in ethanol, 318.15 K): 1.59e-05; solubility (mole fraction) (in ethanol, 328.15 K): 2.07e-05; solubility (mole fraction) (in ethanol, 338.15 K): 2.53e-05; solubility (mole fraction) (in ethyl acetate, 298.15 K): 0.000521; solubility (mole fraction) (in ethyl acetate, 308.15 K): 0.000608; solubility (mole fraction) (in ethyl acetate, 318.15 K): 0.000723; solubility (mole fraction) (in ethyl acetate, 328.15 K): 0.000868; solubility (mole fraction) (in ethyl acetate, 338.15 K): 0.00104; solubility (mole fraction) (in ethylene glycol, 298.15 K): 5.3e-05; solubility (mole fraction) (in ethylene glycol, 308.15 K): 7.04e-05; solubility (mole fraction) (in ethylene glycol, 318.15 K): 9.28e-05; solubility (mole fraction) (in ethylene glycol, 328.15 K): 0.000114; solubility (mole fraction) (in ethylene glycol, 338.15 K): 0.000143; solubility (mole fraction) (in isopropanol, 298.15 K): 2.43e-05; solubility (mole fraction) (in isopropanol, 308.15 K): 3.16e-05; solubility (mole fraction) (in isopropanol, 318.15 K): 4.02e-05; solubility (mole fraction) (in isopropanol, 328.15 K): 4.95e-05; solubility (mole fraction) (in isopropanol, 338.15 K): 6.07e-05; solubility (mole fraction) (in propylene glycol, 298.15 K): 2.88e-05; solubility (mole fraction) (in propylene glycol, 308.15 K): 3.38e-05; solubility (mole fraction) (in propylene glycol, 318.15 K): 4e-05; solubility (mole fraction) (in propylene glycol, 328.15 K): 4.63e-05; solubility (mole fraction) (in propylene glycol, 338.15 K): 5.5e-05; solubility (mole fraction) (in transcutol, 298.15 K): 0.000769; solubility (mole fraction) (in transcutol, 308.15 K): 0.000906; solubility (mole fraction) (in transcutol, 318.15 K): 0.0011; solubility (mole fraction) (in transcutol, 328.15 K): 0.00137; solubility (mole fraction) (in transcutol, 338.15 K): 0.00161; solubility (mole fraction) (in water, 298.15 K): 9.71e-07; solubility (mole fraction) (in water, 308.15 K): 1.25e-06; solubility (mole fraction) (in water, 318.15 K): 1.57e-06; solubility (mole fraction) (in water, 328.15 K): 1.9e-06; solubility (mole fraction) (in water, 338.15 K): 2.25e-06
